# Test results reported in patent US20230340498A1, “COMPOSITIONS AND METHODS FOR INDUCIBLE ALTERNATIVE SPLICING REGULATION OF GENE EXPRESSION” (The Children's Hospital of Philadelphia, priority 2020, published 2023).
# What was measured:
# HEK293 cells = assay: RNA-Seq of HEK293 cells treated with LMI070 for LMI070-induced splicing events; type: cell-based, Human; conditions: HEK293, 25 nM LMI070 for 12 hours
# Protocol: Tables 1A-1E provide the genomic locations of candidate LMI070-induced exons and the frequency of events from RNA-Seq datasets. Summarized here are the differentially expressed candidate LMI070-induced splicing positions as identified by RNA-Seq of HEK293 cells treated with either DMSO or LMI070 (25 nM). All candidates shown were manually selected from a bioinformatically generated list of top hits based on their suitability for construction of an exon switching genomic minigene, their exclusivity to the LMI070 condition, and their minimal to undetectable levels in DMSO treated cells. The top 25 rows of each table indicate hits observed exclusively upon LMI070 exposure. The following 22 rows of each table indicate candidates where splicing was enriched but not totally exclusive to LMI070 treatment.
# Table 1A provides the GRCh38 genomic positions used to create the splice event-containing genomic minigene, the GRCh38 genomic positions of the pseudoexon created by LMI070-induced splicing, the number of exon-exon junction spanning reads observed with DMSO treatment, and the number of exon-exon junctions spanning reads observed with LMI070 treatment. […]
# RNA-Seq Methods. […] Splice junction output by STAR were quantified using a custom R script designed to identify splicing events unique to LMI070 treatment. Top ranking LMI070-exclusive splice events were manually assessed for their applicability to function as a splicing switch. […] Candidate splice events were visually evaluated using the Sashimi plot function available in IGV (Thorvaldsdottir et al., 2013; Katz et al., 2015).
# Next, exons that were more sensitive to LMI070 to reduce non-target splice events were sought out. […] Reads obtained from 4 control and 4 LMI070 treated samples were aligned to the genome using the STAR aligner (Dobin & Gingeras, 2015) and splicing events exclusive to the LMI070 treated samples identified (FIGS. 2A and 2F-2N; Table 1). […]
# SF3B3-on-eGFP cassette = SF3B3-on-eGFP cassette expression in HEK293 cells; type: cell-based, Human; conditions: LMI070 vs DMSO
# Protocol: Cell culture, transfection, and LMI070/RG7800 treatment. Human embryonic kidney (HEK293) cells (obtained from CHOP Research Vector Core stock) were maintained in DMEM media containing 10% Fetal Bovine Serum (FBS), 1% L-Glutamine and 1% penicillin/streptomycin at 37° C. with 5% CO2. Cells were cultured in 24 well plates and transfected at 80-90% confluence using Lipofectamine 2000 transfection reagent, according to the manufacturer’s protocol. For all experiments, 4 hours after plasmid transfection, cells were treated with LMI070 (MedChemExpress, HY-19620, suspended in DMSO) or RG7800 (MedChemExpress, HY-101792A, suspended in H2O) at the indicated concentrations. Cells were tested for mycoplasma by Research Vector Core. None of the cells used in the study were listed in ICLAC database of commonly misidentified cell lines.
# Next, a series of switch-on cassettes were developed from the top 4 LMI070-responsive exons found in the RNA-Seq dataset. […] HEK293 cells were transfected with the candidate cassettes, treated with LMI070, and luciferase activity or eGFP expression determined 24 h later. […] Similarly, eGFP expression was only detected in cells transfected with the SF3B3-on-eGFP cassette in response to LMI070 treatment (FIG. 3D).
compound,measurement,setting,value
"CC1(C)CC(Oc2ccc(-c3ccc(-c4cn[nH]c4)cc3O)nn2)CC(C)(C)N1 [LMI070, 5-(1H-Pyrazol-4-yl)-2-(6-((2,2,6,6-tetramethylpiperidin-4-yl)oxy)pyridazin-3-yl)phenol]",events evident in all treated and in one of the control untreated samples,HEK293 cells,22
same,events found exclusively and in all LMI070 treated samples,HEK293 cells,23
same,novel splicing events identified following LMI070 treatment,HEK293 cells; threshold average greater than 5 novel intron splicing events,45
same,eGFP expression from SF3B3-on-eGFP cassette,SF3B3-on-eGFP cassette,only detected
